Square brackets hold non-standard residues; d marks the D form. Ends that are not written are not given here. Peptide text beside a SMILES is read from it. Abu(4-PO3H2) = N[C@@H](CCP(=O)(O)O)C(=O)O; pS = N[C@@H](COP(=O)(O)O)C(=O)O
system: TCR27-AKD10R3 cells; experiment: X-scan (peptide scan), EGFP reporter effector cells; type: cell-based, murine; conditions: Fig. 1c source data, HLA B*07, T2 cells pulsed with 25 μg peptide per 1 × 10^6 cells, 2 h, 37 °C, effector cells 2:1 overnight, mean value of triplicate
Experimental: Tap-deficient T2 (174x CEM.T2) HLA-B*0702+ cells were received from Dr. Victor Engelhard. These and the commercially purchased Tap-deficient T2 (174 x CEM.T2) cells (ATCC CRL 1991) were maintained in RPMI 1640 (BioConcept) supplemented with 10% fetal calf serum (FCS, HyClone), 2mM L-glutamine and 1% Penicillin/Streptomycin at 37 °C and 5% CO2. The EGFP reporter cell line was based on a murine TCR negative thymoma cell line derived from strain BW5417 (ATCC®TIB-47TM) and was stably transduced with (a) TCR27 in which the human constant regions were replaced with those of mouse, (b) a chimeric mouse/human CD8, and (c) an EGFP reporter construct linked to a minimal IL-2 promoter comprising three NFAT-binding sites (3xNFAT)[44]. The transduced cells were termed TCR27-AKD10R3 cells and will be called the effector cells. Mouse cell lines were cultured in SF-IMDM (BioConcept) supplemented with 3% FCS, 1% Penicillin/Streptomycin, and 50 μM beta-mercaptoethanol at 37 °C and 10% CO2.
(§1) Peptides were dissolved in dimethyl sulfoxide (DMSO) at concentrations of 2–20 mg/mL, aliquoted and stored at −80 °C. Peptide-pulsing experiments were performed by pre-incubating T2 cells with 25 μg peptide per 1 × 10^6 cells in PBS for 2 h at 37 °C and 5% CO2, washed three times to remove unbound peptides and used for further downstream analysis. Peptide-pulsed T2 cells were incubated with effector cells in a 2:1 ratio overnight in SF-IMDM at 37 °C and 10% CO2, washed twice and stained with anti-mouse TCR-® chain clone H57-597 (BD Pharmingen #560656, 1:500) for 30 min at RT. Cells were washed twice before FACS-analysis using a BD FACS Canto II with System software v2.0. Data analysis was performed using FlowJo V10 Software. Binding affinity between each peptide and HLA-B*0702 was determined using an Alpha assay. It is a homogenous, proximity-based assay for detection of peptides binding to HLA class I molecules using a conformation-dependent anti-HLA class I antibody, W6/32, as one tag and a biotinylated recombinant HLA class I molecule as the other tag, and a proximity-based signal was generated through the luminescent oxygen channeling immunoassay technology (PerkinElmer) as described.
To identify the off-target peptides we have utilized an approach that was developed previously. In brief, we investigated which amino acids at each position in pMLL747–755 enable TCR interaction by sequentially replacing every amino acid position outside of the anchor positions 2 and 9 with all 19 alternative amino acids, resulting in 134 peptides (133 altered peptides plus original epitope). Each peptide was individually evaluated using cell-based in vitro cytotoxicity assay. To represent the TCR recognition kernel, we have defined Position Weight Matrices (PWMs) for each assay by assigning normalized measurements to each of the 20 amino acids in each position. To predict potential off-target peptides, we applied an algorithm projecting the PWM-defined kernel into the human proteome, scoring TCR27 recognition for the predicted HLA-B^*0702 binding 9-mer peptides. Of the 11 peptides with highest predicted cross-reactivity scores, we confirmed that only 2, […] and pDOT1L998–1006, strongly activated the TCR27-expressing effector T cells.

Row | Molecule | Percentage GFP positive from TCR+ cells
1 | EPVsPSHSM [single-residue substitution of pMLL747–755, Pos 3] | 2.11%
2 | EPWsPSHSM [single-residue substitution of pMLL747–755, Pos 3] | 0.92%
3 | EPYsPSHSM [single-residue substitution of pMLL747–755, Pos 3] | 1.08%
4 | FPRsPSHSM [single-residue substitution of pMLL747–755, Pos 1] | 1.43%
5 | GPRsPSHSM [single-residue substitution of pMLL747–755, Pos 1] | 1.59%
6 | HPRsPSHSM [single-residue substitution of pMLL747–755, Pos 1] | 1.23%
7 | IPRsPSHSM [single-residue substitution of pMLL747–755, Pos 1] | 1.7%
8 | KPRsPSHSM [single-residue substitution of pMLL747–755, Pos 1] | 1.37%
9 | LPRsPSHSM [single-residue substitution of pMLL747–755, Pos 1] | 10.7%
10 | MPRsPSHSM [single-residue substitution of pMLL747–755, Pos 1] | 1.37%
11 | NPRsPSHSM [single-residue substitution of pMLL747–755, Pos 1] | 1.27%
12 | PPRsPSHSM [single-residue substitution of pMLL747–755, Pos 1] | 1.13%
13 | QPRsPSHSM [single-residue substitution of pMLL747–755, Pos 1] | 2.64%
14 | RPRsPSHSM [single-residue substitution of pMLL747–755, Pos 1] | 1.11%
15 | SPRsPSHSM [single-residue substitution of pMLL747–755, Pos 1] | 1.08%
16 | TPRsPSHSM [single-residue substitution of pMLL747–755, Pos 1] | 1.28%
17 | VPRsPSHSM [single-residue substitution of pMLL747–755, Pos 1] | 1.39%
18 | WPRsPSHSM [single-residue substitution of pMLL747–755, Pos 1] | 1.18%
19 | YPRsPSHSM [single-residue substitution of pMLL747–755, Pos 1] | 1.32%

same assay, conditions: Fig. 1c source data, second set of control lines at the end of the sheet (no Pep code)

Row | Molecule | Percentage GFP positive from TCR+ cells
20 | RVR[pS]PTRSL [unrelated phosphopeptide control of the X-scan, reference compound] | 0.74%

molecular target: HLA-B*0702 (Homo sapiens, UniProt P01889); experiment: Alpha assay, peptide binding to HLA-B*0702; conditions: Alpha assay (luminescent oxygen channeling), W6/32 antibody and biotinylated recombinant HLA class I; non-linear fit
Experimental: as §1

Row | Kd | Molecule
21 | 0.0262 µM | CSCC[C@H](NC(=O)[C@H](CO)NC(=O)[C@H](Cc1c[nH]cn1)NC(=O)[C@H](CO)NC(=O)[C@@H]1CCCN1C(=O)[C@H](COS(=O)(=O)O)NC(=O)[C@H](CCCNC(=N)N)NC(=O)[C@@H]1CCCN1C(=O)[C@@H](N)CCC(=O)O)C(=O)O [OSE-MLL747–755]
22 | 0.309 µM | CC(C)C[C@H](NC(=O)[C@H](CCC(N)=O)NC(=O)[C@H](Cc1c[nH]cn1)NC(=O)[C@H](C)NC(=O)[C@@H]1CCCN1C(=O)[C@H](COP(=O)(O)O)NC(=O)[C@H](C)NC(=O)[C@@H]1CCCN1C(=O)[C@@H](N)CC(C)C)C(=O)O [pDOT1L998–1006] (H-LPA[pS]PAHQL-OH)
23 | 0.0567 µM | CSCC[C@H](NC(=O)[C@H](CO)NC(=O)[C@H](Cc1c[nH]cn1)NC(=O)[C@H](CO)NC(=O)[C@@H]1CCCN1C(=O)[C@H](COP(=O)(O)O)NC(=O)[C@H](CCCNC(=N)N)NC(=O)[C@@H]1CCCN1C(=O)[C@@H](N)CCC(=O)O)C(=O)O [pMLL747–755] (H-EPR[pS]PSHSM-OH)
24 | 0.027 µM | EPRSPSHSM [MLL747–755]
25 | 0.0543 µM | LPASPAHQL [DOT1L998–1006]

Row | Molecule | Kd
26 | CSCC[C@H](NC(=O)[C@H](CO)NC(=O)[C@H](Cc1c[nH]cn1)NC(=O)[C@H](CO)NC(=O)[C@@H]1CCCN1C(=O)[C@H](CCP(=O)(O)O)NC(=O)[C@H](CCCNC(=N)N)NC(=O)[C@@H]1CCCN1C(=O)[C@@H](N)CCC(=O)O)C(=O)O [E7P-MLL747–755] (H-EPR[Abu(4-PO3H2)]PSHSM-OH) | 0.0339 µM
